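Following 48 hours of exposure in 96-well plates, responses at five concentrations were used to interpolate endpoints linearly. GI50 marks 50% less growth.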 Calls of active or inactive are those of the source. Cut-off read from the data, not from the text of the source: active = GI50 up to about 1.1 µM and inactive = higher.
How the values were obtained:
Test in all cases: NCI-60 cell line screen, 48 h
OVCAR-4 = test system: OVCAR-4
SNB-75 = test system: SNB-75
DMS-114 = test system: DMS-114
KM12 = test system: KM12
DLD-1 = test system: DLD-1
EKVX = test system: EKVX
HL-60 = test system: HL-60
HCT-116 = test system: HCT-116
RPMI-8226 = test system: RPMI-8226
A498 = test system: A498
U-251 = test system: U-251
SK-OV-3 = test system: SK-OV-3
SNB-78 = test system: SNB-78
Malme-3M = test system: Malme-3M
M19-MEL = test system: M19-MEL
OVCAR-5 = test system: OVCAR-5
SR = test system: SR
SK-MEL-5 = test system: SK-MEL-5
KM-20L2 = test system: KM-20L2
SF-539 = test system: SF-539
UACC-257 = test system: UACC-257
ACHN = test system: ACHN
SK-MEL-2 = test system: SK-MEL-2
MOLT-4 = test system: MOLT-4
HOP-18 = test system: HOP-18
NCI-H522 = test system: NCI-H522
DMS-273 = test system: DMS-273
SN12C = test system: SN12C
NCI-H460 = test system: NCI-H460
SK-MEL-28 = test system: SK-MEL-28
OVCAR-3 = test system: OVCAR-3
HOP-92 = test system: HOP-92
RXF 631 = test system: RXF 631
IGROV-1 = test system: IGROV-1
CCRF-CEM = test system: CCRF-CEM
HCT-15 = test system: HCT-15
K562 = test system: K562
NCI-H226 = test system: NCI-H226
LXFL 529 = test system: LXFL 529
COLO 205 = test system: COLO 205
786-0 = test system: 786-0
HCC 2998 = test system: HCC 2998
M14 = test system: M14
NCI-H23 = test system: NCI-H23
UACC-62 = test system: UACC-62
A549 = test system: A549
SF-268 = test system: SF-268
CAKI-1 = test system: CAKI-1
UO-31 = test system: UO-31
SF-295 = test system: SF-295
HOP-62 = test system: HOP-62
HT-29 = test system: HT-29
OVCAR-8 = test system: OVCAR-8
TK-10 = test system: TK-10

NCCCNC(=O)c1csc(NC(=O)c2csc(NC(=O)CCCN)n2)n1
GI50 (OVCAR-4): 18.7 µM (inactive) | GI50 (SNB-75): > 100 µM (inactive) | GI50 (DMS-114): > 100 µM (inactive) | GI50 (KM12): > 100 µM (inactive) | GI50 (DLD-1): > 100 µM (inactive) | GI50 (EKVX): > 100 µM (inactive) | GI50 (HL-60): > 100 µM (inactive) | GI50 (HCT-116): > 100 µM (inactive) | GI50 (RPMI-8226): > 100 µM (inactive) | GI50 (A498): > 100 µM (inactive) | GI50 (U-251): > 100 µM (inactive) | GI50 (SK-OV-3): > 100 µM (inactive) | GI50 (SNB-78): > 100 µM (inactive) | GI50 (Malme-3M): > 100 µM (inactive) | GI50 (M19-MEL): > 100 µM (inactive) | GI50 (OVCAR-5): > 100 µM (inactive) | GI50 (SR): > 100 µM (inactive) | GI50 (SK-MEL-5): > 100 µM (inactive) | GI50 (KM-20L2): > 100 µM (inactive) | GI50 (SF-539): > 100 µM (inactive) | GI50 (UACC-257): > 100 µM (inactive) | GI50 (ACHN): > 100 µM (inactive) | GI50 (SK-MEL-2): > 100 µM (inactive) | GI50 (MOLT-4): > 100 µM (inactive) | GI50 (HOP-18): > 100 µM (inactive) | GI50 (NCI-H522): > 100 µM (inactive) | GI50 (DMS-273): > 100 µM (inactive) | GI50 (SN12C): > 100 µM (inactive) | GI50 (NCI-H460): > 100 µM (inactive) | GI50 (SK-MEL-28): > 100 µM (inactive) | GI50 (OVCAR-3): > 100 µM (inactive) | GI50 (HOP-92): > 100 µM (inactive) | GI50 (RXF 631): > 100 µM (inactive) | GI50 (IGROV-1): > 100 µM (inactive) | GI50 (CCRF-CEM): > 100 µM (inactive) | GI50 (HCT-15): > 100 µM | GI50 (K562): > 100 µM (inactive) | GI50 (NCI-H226): > 100 µM (inactive) | GI50 (LXFL 529): > 100 µM (inactive) | GI50 (COLO 205): > 100 µM (inactive) | GI50 (786-0): > 100 µM (inactive) | GI50 (HCC 2998): > 100 µM (inactive) | GI50 (M14): > 100 µM (inactive) | GI50 (NCI-H23): > 100 µM (inactive) | GI50 (UACC-62): > 100 µM (inactive) | GI50 (A549): > 100 µM (inactive) | GI50 (SF-268): > 100 µM (inactive) | GI50 (CAKI-1): > 100 µM (inactive) | GI50 (UO-31): > 100 µM (inactive) | GI50 (SF-295): > 100 µM (inactive) | GI50 (HOP-62): > 100 µM (inactive) | GI50 (HT-29): > 100 µM (inactive) | GI50 (OVCAR-8): > 100 µM (inactive) | GI50 (TK-10): > 100 µM (inactive)

From ChEMBL document CHEMBL1201862, “PubChem BioAssay data set” (2004)
